Measurements published in patent publication US20260015436A1, “ANTIBODIES FOR CHELATED RADIONUCLIDES” (Hoffmann-La Roche Inc., priority 2018, published 2026).

System: WSU-DLCL2 tumors
Test: Protocol 162: CD20-PRIT efficacy
Format: in vivo, SCID mice
Conditions: multiple injections of 20 μCi (PRIT); result in words
Protocol: The aim of this study was to show proof-of-concept of the treatment regimen developed for CEA-PRIT directed against an alternative target: cluster of differentiation 20 (CD20). The therapeutic efficacy was evaluated after 3 cycles of CD20-PRIT in mice bearing subcutaneous WSU-DLCL2 tumors. Comparisons were also made with: 1-step CD20-RIT, using BsAbs that were pre-incubated with ^212Pb-DOTAM before injection; with rituximab, a type I monoclonal antibody directed against CD20 and a reference in treatment of CD20+ diseases; and with GA101, a type II monoclonal antibody also directed against CD20.
Animals were treated according to the experimental schedule illustrated in FIG. 59. Solid WSU-DLCL2 xenografts were established in SCID mice aged 8 weeks on study day 0 by subcutaneous injection of 1.5×10^5 cells into the right flank. […]
Mice in groups H, I, and L were sacrificed and necropsied for biodistribution purposes 24 hours after their first and only injection of ^212Pb-DOTAM or ^212Pb-DOTAM-BsAb; groups J and K were sacrificed and necropsied 24 hours after their second and third ^212Pb-DOTAM injection, respectively. […] Collected samples were weighed and then measured for radioactivity using a 2470 WIZARD^2 automatic gamma counter (PerkinElmer), and the percent injected dose per gram of tissue (% ID/g) subsequently calculated, including corrections for decay and background. […]

For `NC(=O)CN1CCN(CC(N)=O)CCN(CC(N)=O)CCN(CC(N)=O)CC1.[212Pb+2]` [^212Pb-DOTAM], the BW development was “well tolerated”.
